Read-outs that look alike come from different tables or passages of the source.
How the values were obtained:
[1] = test system: Walker 256 carcinosarcoma in ascitic form; conditions: for Effect MST %T/C / MST Days / Survivors Day 5 / Average Weight Change: Exp. #5501; for MST Days: Bu-2231 A and B as copper-free formate salts; for Survivors Day 5: toxicity evaluation; for Average Weight Change: recorded Day 5; for fold greater potency (vs bleomycin): Table II, copper-free formate salts;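 as to all read-outs here: female SD rats bearing intraperitoneally implanted ascites tumor cells, treated ip once a day for 8 days beginning on Day 1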
[2] = test system: Bacillus subtilis PCI-219; experiment: Paper disc-agar diffusion method
Lewis Lung carcinoma = conditions: for Effect MST %T/C / MST Days / Survivors Day 5: Exp. #55; for Survivors Day 5: toxicity evaluation
[3] = mice, sc, up to a dose of 50 mg./kg.
Procedure: The acute toxicity of copper-free Bu-2231 A and B was determined in mice by a single subcutaneous injection. Groups of 3 mice were used for each dose level and the body weight was recorded for 16 days.

[4] = 10 mcg/kg/day ip once daily for 8 days
[5] = 40 mcg/kg/day ip once daily for 8 days
[6] = 160 mcg/kg/day ip once daily for 8 days
[7] = 640 mcg/kg/day ip once daily for 8 days
[8] = 0.5 mg/kg/day ip once daily for 9 days
[9] = 1 mg/kg/day ip once daily for 9 days
[10] = 2 mg/kg/day ip once daily for 9 days
[11] = 4 mg/kg/day ip once daily for 9 days
[12] = 8 mg/kg/day ip once daily for 9 days

| SMILES | Effect MST %T/C [1, 4] [%] | MST Days [1, 4] [days] | Survivors Day 5 ([1]; 10 mcg/kg/day) | Effect MST %T/C [1, 5] [%] | MST Days [1, 5] [days] | Survivors Day 5 ([1]; 40 mcg/kg/day) | Effect MST %T/C [1, 6] [%] | MST Days [1, 6] [days] | Average Weight Change ([1]; 160 mcg/kg/day) | Survivors Day 5 ([1]; 160 mcg/kg/day) | Effect MST %T/C [1, 7] [%] | MST Days [1, 7] [days] | Survivors Day 5 ([1]; 640 mcg/kg/day) | fold greater potency (vs bleomycin) [1] [fold] | activity against B. subtilis PCI-219 [2] | Effect MST %T/C (Lewis Lung carcinoma; [8]) [%] | MST Days (Lewis Lung carcinoma; [8]) [days] | Survivors Day 5 (Lewis Lung carcinoma; 0.5 mg/kg/day) | Effect MST %T/C (Lewis Lung carcinoma; [9]) [%] | MST Days (Lewis Lung carcinoma; [9]) [days] | also measured |
| --- | --- | --- | --- | --- | --- | --- | --- | --- | --- | --- | --- | --- | --- | --- | --- | --- | --- | --- | --- | --- | --- |
| Cc1c(N)nc([C@H](CC(N)=O)NC[C@H](N)C(N)=O)nc1C(=O)N[C@H](C(=O)N[C@H](C)[C@@H](O)CC(=O)N[C@H](C(=O)NC(O[C@@H]1O[C@@H](C)[C@@H](N)[C@@H](O)[C@H]1O)C(O)c1nc(-c2nc(C(=O)NCCCC(N)CC(=O)NCCCNCCCCN)cs2)cs1)[C@@H](C)O)[C@H](O[C@@H]1O[C@@H](CO)[C@@H](O)[C@H](O)[C@@H]1O[C@H]1O[C@H](CO)[C@@H](O)[C@H](OC(N)=O)[C@@H]1O)c1c[nH]cn1 (stereo partly shown) [Bu-2231 A] | 129 | 9.0 | 6/6 | 157 | 11.0 | 6/6 | 179 | 12.5 | +28.8 g. | 6/6 | 250 | 17.5 | 6/6 | 4 | active | 120 | 26.5 | 6/6 | 123 | 27.0 | activity against Lewis Lung Carcinoma (T/C >= 125 criterion) (Lewis Lung carcinoma; 1 mg./kg.): just below an active level; Survivors Day 5 (Lewis Lung carcinoma; 1 mg/kg/day): 6/6; Effect MST %T/C (Lewis Lung carcinoma; [10]): 114%; MST Days (Lewis Lung carcinoma; [10]): 25.0 days; Survivors Day 5 (Lewis Lung carcinoma; 2 mg/kg/day): 6/6; Effect MST %T/C (Lewis Lung carcinoma; [11]): 32%; MST Days (Lewis Lung carcinoma; [11]): 7.0 days; Survivors Day 5 (Lewis Lung carcinoma; 4 mg/kg/day): 6/6; Effect MST %T/C (Lewis Lung carcinoma; [12]): 27%; MST Days (Lewis Lung carcinoma; [12]): 6.0 days; Survivors Day 5 (Lewis Lung carcinoma; 8 mg/kg/day): 6/6; solubility (ethanol): slightly soluble; solubility (methanol): soluble; solubility (other organic solvents): practically insoluble; solubility (water): soluble |
| Cc1c(N)nc([C@H](CC(N)=O)NC[C@@H](N)C(N)=O)nc1C(=O)N[C@H](C(=O)N[C@H](C)[C@@H](O)CC(=O)N[C@@H](C(=O)NC(O[C@@H]1O[C@@H](C)[C@@H](N)[C@@H](O)[C@H]1O)C(O)c1nc(-c2nc(C(=O)NCCCNCCCCN)cs2)cs1)[C@@H](C)O)C(O[C@@H]1O[C@@H](CO)[C@H](O)[C@@H](O)[C@@H]1O[C@H]1O[C@H](CO)[C@@H](O)[C@@H](OC(N)=O)[C@@H]1O)c1cnc[nH]1 (stereo partly shown) [Bu-2231 B] | 114 | 8.0 | 6/6 | 157 | 11.0 | 6/6 | 186 | 13.0 | +36.5 g. | 6/6 | 186 | 13.0 | 6/6 | 4 | active | 102 | 22.5 | 6/6 | 134 | 29.5 | Average Weight Change ([1]; 10 mcg/kg/day): +36.5 g.; Average Weight Change ([1]; 640 mcg/kg/day): +10.7 g.; death in acute toxicity test [3]: No death occurred; Survivors Day 5 (Lewis Lung carcinoma; 1 mg/kg/day): 6/6; Effect MST %T/C (Lewis Lung carcinoma; [10]): 136%; MST Days (Lewis Lung carcinoma; [10]): 30.0 days; Survivors Day 5 (Lewis Lung carcinoma; 2 mg/kg/day): 6/6; Effect MST %T/C (Lewis Lung carcinoma; [11]): 48%; MST Days (Lewis Lung carcinoma; [11]): 10.5 days; Survivors Day 5 (Lewis Lung carcinoma; 4 mg/kg/day): 6/6; Effect MST %T/C (Lewis Lung carcinoma; [12]): 27%; MST Days (Lewis Lung carcinoma; [12]): 6.0 days; Survivors Day 5 (Lewis Lung carcinoma; 8 mg/kg/day): 5/6; activity against Lewis Lung Carcinoma (T/C >= 125 criterion) (Lewis Lung carcinoma; doses of 2 and 1 mg./kg.): active; solubility (ethanol): slightly soluble; solubility (methanol): soluble; solubility (other organic solvents): practically insoluble; solubility (water): soluble |

Reference: patent US4051237A, “Glycopeptide antibiotics Bu-2231 A and B and process for producing same” (priority 1975, dated 1977)
